Test results published in patent US12263248B2, “Compounds and compositions for intracellular delivery of therapeutic agents” (ModernaTX, Inc., priority 2018, dated 2025).

Experiments:
[1] = test system: luciferase (Luc) mRNA; assay: Luc expression, whole body bioluminescence after intravenous administration to mice; type: in vivo; settings: for Total Flux 3 hours / Total Flux 6 hours / Total Flux 24 hours / flux at all timepoints measured: i.v., 0.5 mg/kg; for Total Flux 3 hours / Total Flux 6 hours / Total Flux 24 hours: Luc mRNA; for flux at all timepoints measured: 3, 6 and 24 hour, in words
Outline: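 Bioluminescence, read as region-of-interest total flux at 3, 6 and 24 h, followed a single 0.5 mg/kg intravenous dose of Luc mRNA-loaded nanoparticles in mice (n=6). Luciferin substrate (200 μL, 15 mg/mL in PBS) was injected intraperitoneally into CD-1 mice 15 minutes ahead of each imaging point.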

[2] = test system: luciferase (Luc) mRNA; assay: Luc expression in liver, lung, spleen and femur 6 hours after intravenous administration; type: in vivo; settings: mice, 0.5 mpk; for Total Flux Femur / Total Flux Liver / Total Flux Lung / Total Flux Spleen: intravenous
Outline: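 LNP-formulated mRNA given IV to mice (n=3) at 0.5 mpk; at 6 h, bioluminescence imaged ex vivo 15 min after IP D-luciferin (15 mg/mL, 200 μL), organs imaged within 25 min. Values are total flux by region of interest.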

[3] = test system: IL-6, IP-10; assay: Cytokine induction in mice upon intravenous administration; type: in vivo; set-up: Cytokine induction IL-6 / Cytokine induction IP-10: unit not given here; settings: 0.5 mpk, 6 hours; for IL-6 induction: i.v., in words; for Cytokine induction IL-6 / Cytokine induction IP-10: intravenous
Outline: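 IL-6 and IP-10 concentrations determined 6 hours after a single intravenous 0.5 mpk dose of lipid nanoparticle formulation in mice, with MC3 and PBS as comparators.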

[4] = test system: sC5b-9; assay: Complement activation in vitro (sC5b-9 levels); type: cell-based; settings: human cells contacted in vitro; for sC5b-9 levels relative to saline: in words
Procedure: Complement activation assists in the clearance of pathogens from an organism. As it is undesirable that a subject's body recognize a nanoparticle composition as a foreign invader, low complement system activation upon administration of such a composition is preferred. The complex sC5b-9 is a marker for the activation of the complement system. Thus, human cells were contacted in vitro with nanoparticle compositions according to Table 1A and were evaluated for sC5b-9 levels.

[5] = Encapsulation efficiency of RNA (QUANT-IT RIBOGREEN RNA assay); type: physicochemical; settings: for EE (%): Table 1A
Outline: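 RiboGreen fluorescence (ex ~480, em ~520 nm) compared between intact samples and Triton X-100-lysed samples after 15 min at 37 °C in TE buffer, pH 7.5. Percent free RNA is the blank-corrected intact/disrupted ratio.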

[6] = Apparent (surface) pKa of the LNP formulation (TNS assay); type: physicochemical
Outline: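 Fluorescence of TNS probe added to LNP samples (mRNA 0.04 mg/mL) was read across 21 buffers of pH about 3-12, triplicate per pH. The inflection point of the sigmoidal fluorescence-vs-pH curve, […], gives apparent pKa; method validated in 1× PBS and Tris/sucrose buffer.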

[7] = Particle size and polydispersity index of nanoparticle compositions (Zetasizer Nano ZS); type: physicochemical; settings: for PDI / Size (nm): Table 1A; for Size (nm): lipid:DSPC:cholesterol:PEG-DMG 50:10:38.5:1.5 mol %
Outline: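 Zetasizer Nano ZS; samples in 1×PBS; read-out: particle size plus polydispersity index.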

[8] = Lipid clearance from mouse tissues after weekly dosing; type: in vivo; settings: 0.25 mg/kg mRNA on days 1, 8, and 15
Procedure: Repeat dosing of mRNA in an MC3-based LNP for a therapeutic indication would be expected to lead to accumulation of MC3 in tissues, based on the measured half-life. Therefore it was investigated whether the favorable single dose pharmacokinetics of compound 18 were maintained with weekly dosing. Clearance of MC3 and compound 18 from multiple mouse tissues was measured after dosing 0.05 mg/kg mRNA on day 1, 8 and 15 (FIG. 30A). Following dosing with MC3 LNPs, lipid was detected in liver, spleen, plasma, kidney, heart and lung, with liver and spleen containing the largest concentrations (FIG. 30A, for full panel of tissues see FIG. 35A). […] Compound 18 was also detected in plasma, lung, and kidney, but not in heart (FIG. 35A).
In vitro metabolite identification studies using compound 18 were also performed. […] The disappearance of parent compound 18 and the primary metabolite, compound 166, from mouse liver tissue was measured after dosing 0.25 mg/kg mRNA on days 1, 8, and 15.

[9] = Metabolite identification of Compound 18 in human plasma; type: in vitro ADME; set-up: key to Detection in incubation: +: Detected; ND: Not detected; settings: for Detection in incubation: Compound 18 (10 μM), human plasma
Procedure: Metabolite Identification: Compound 18 (10 μM) was incubated with human plasma (29.0 mg protein/incubation) in incubation mixtures (200 μL final incubation volume) that consisted of 50/50v/v neat plasma (undiluted)/substrate solution in 50 mM phosphate buffer, pH 7.4). The plasma was obtained from male and female donors and contained K2EDTA anticoagulant. Reactions were started by addition of the substrate solution to human plasma and were stopped at four designated time points (0, 30, 60 and 90 min) by the addition of 600 μL of stop reagent (acetonitrile). Stopped incubation samples were centrifuged (e.g., 10,000×g for 10 min at 10° C.) and the supernatant fractions were analyzed by LC-MS/MS to characterize the metabolites formed from compound 18. Additional incubations were performed with the positive control procaine (5 μM) to establish competency of the test system. Samples were analyzed by LC-MS/MS.

[10] = test system: human hepatocytes; assay: Metabolite profiling of Compound 18 with human hepatocytes; type: in vitro ADME; set-up: key to Detection in incubation: +: Detected; ND: Not detected; settings: for Detection in incubation: Compound 18 (10 μM), human hepatocytes
Procedure: The results of metabolic profiling and characterization for compound 18 incubated with human hepatocytes or human plasma are summarized in Tables 41 and 42, respectively.

[11] = Lipid clearance: lipid level in mouse liver tissue (LC-MS/MS); type: in vivo
Procedure: Quantification of Lipid by LC-MS/MS: Liver samples were homogenized following addition of 19 eq. (w/v) of water (DF=20). Protein was precipitated and analyzed against calibration standards prepared in matching blank. Chromatographic separation and quantification was accomplished with a LC-MS/MS System. Samples were injected and separated via HPLC A triple-quadrupole MS/MS system operated in positive ion mode was used for signal detection.

[12] = Chemical stability of lipids in ethanol (lipid purity); type: physicochemical
Procedure: Ester linkages were previously reported to trigger metabolism by esterases in vivo. (See Fukami, T. et al. Drug Metab. Pharmacokinet. 2012, 27, 466-477, the content of which is incorporated by reference herein in its entirety). […] (See Maier M. A., Mol. Ther. 2013, 21, 1570-1578, the content of which is incorporated herein in its entirety) First, the chemical stability of the lipids was evaluated by measuring ethanol stability at room temperature and 37° C. (Table 39). […] LNPs formed with compound 138 were larger, with a surface pKa>7. […] Removal of one ester function (compound 136) afforded LNPs with improved physiochemical characteristics and lower LNP surface pKa.

[13] = test system: hEPO mRNA; assay: Pretreatment study in Cynomolgus monkeys (standard MC3 formulation, hEPO mRNA); type: in vivo; settings: MC3 formulation once weekly for four weeks
Procedure: The effects of pretreatment to non-human primates were evaluated using a standard MC3 formulation including an mRNA encoding hEPO. Male monkeys were administered the nanoparticle composition once weekly for four weeks at a dose rate of 5 ml/kg/h and were pretreated with either methotrexate or dexamethasone.
As shown, in the absence of any pretreatment, maximal expression levels decreased nearly 70% over the course of the study.

[14] = lipid nanoparticle, ±SD within one assay run (Table 37)

Row | Structure (SMILES) | Total Flux 3 hours ([1]; mice) | Total Flux 6 hours ([1]; mice) | Total Flux 24 hours ([1]; mice) | Total Flux Femur [2] | Total Flux Liver [2] | Total Flux Lung [2] | Total Flux Spleen [2] | Cytokine induction IL-6 [3] | Cytokine induction IP-10 [3] | Fold increase in sC5b-9 levels versus saline [4] | EE (%) [5] | pKa ([6]; Table 1A) | PDI [7] | Size (nm) [7] | other results
1 | CCCCCCCCCOC(=O)CCCCCCCN(CCCCCCCC(=O)OC(CCCCCCCC)CCCCCCCC)CCOC(C)=O [Compound 9, Heptadecan-9-yl 8-((2-acetoxyethyl)(8-(nonyloxy)-8-oxooctyl)amino) octanoate] | 1.43E+08 | 3.46E+06 | 1.01E+06 | 2.57E+04 | 4.30E+05 | 2.56E+04 | 5.51E+04 | 317.45 | 366.53 | 0.92 | 75.7% | 4.87 | 0.12 | 68.5 nm | flux at all timepoints measured ([1]; mice): significantly lower flux; Flux in the spleen ([2]; i.v., in words): lowest; IL-6 induction [3]: highest; sC5b-9 levels relative to saline [4]: slightly decrease
2 | CCCCCC/C=C\COC(=O)CCCCCCCN(CCO)CCCCCCCC(=O)OC/C=C\CCCCCC [Compound 139, Di((Z)-non-2-en-1-yl) 8,8′-((2-hydroxyethyl)azanediyl)dioctanoate] | 3.50E+07 | 1.17E+07 | 5.89E+05 | 5.12E+04 | 8.27E+05 | 5.26E+04 | 2.10E+06 | 23.57 | 153.36 | 0.73 | 78.2% | 7.04 | 0.54 | 174.0 nm | 
3 | CCCCCCCCC(CCCCCCCC)OC(=O)CCCCCCCN(CCO)CCCCCCCC(=O)O [Compound 166, 8-((8-(Heptadecan-9-yloxy)-8-oxooctyl)(2-hydroxyethyl)amino)octanoic acid] |  |  |  |  |  |  |  |  |  |  |  |  |  |  | disappearance from mouse liver tissue [8]: rapid clearance; Proposed biotransformation ([9]; Compound 18 (10 μM) with human plasma (29.0 mg protein/incubation)): Ester hydrolysis; Detection in incubation ([9]; 30 min): +; Detection in incubation ([9]; 60 min): +; Detection in incubation ([9]; 90 min): +; Proposed biotransformation ([10]; Compound 18 (10 μM) with human hepatocytes (1 million cells/mL)): Ester hydrolysis; Detection in incubation ([10]; 60 min): +; Detection in incubation ([10]; 120 min): +; Detection in incubation ([10]; 240 min): +
4 | CCCCCCCCCCCCCCCCCCN(CCO)CCCCCCCC(=O)OC(CCCCCCCC)CCCCCCCC [Compound 1, Heptadecan-9-yl 8-((2-hydroxyethyl)(octadecyl)amino)octanoate] | 3.48E+09 | 3.40E+09 | 4.10E+08 | 7.52E+05 | 4.02E+08 | 1.72E+06 | 4.27E+06 | 267.24 | 687.14 | 0.82 | 97.04% | 6.50 | 0.091 | 72.7 nm | Fold increase in total body Luc Flux relative to MC3 at 6 h ([1]; Table 3A, i.v. administration): 0.40; IL-6 induction [3]: highest; sC5b-9 levels relative to saline [4]: slightly decrease
5 | CCCCCCCCCOC(=O)CCCCCCCN(CCCCCCCC(=O)OC(CCCCCCCC)CCCCCCCC)CCCNC(=O)C(C)(C)COC [Compound 281, Heptadecan-9-yl 8-((3-(3-methoxy-2,2-dimethylpropanamido)propyl)(8-(nonyloxy)-8-oxooctyl)amino)octanoate] |  |  |  |  |  |  |  |  |  |  |  |  |  |  | luciferase activity relative to MC3 LNP control ([1]; mice, intravenous, 0.5 mg/kg (mRNA dose)): two-fold lower; % dose remaining Mouse liver tissue, 24 h ([11]; CD-1 mouse liver 24 h after 0.5 mg/kg bolus dose mRNA, n = 5 ± S.D.): 66 ± 22%; original dose remaining in liver tissue 24 hours post dose ([11]; mice, intravenous): 66%; Lipid Purity ([12]; t = 0): 95.17%; Lipid Purity ([12]; t = 96 h, 25° C.): 95.15%; Lipid Purity ([12]; t = 96 h, 37° C.): 96.47%; % Encapsulation [5, 14]: 96.9 ± 1.2%; pKa [6, 14]: 6.79 ± 0.37; PDI (Polydispersity index) [7, 14]: 0.14 ± 0.05; Size [7, 14]: 93.8 ± 5.6 nm
6 | CCCCCCCCCCCOC(=O)CCCCCN(CCO)CCCCCC(=O)OCCCCCCCCCCC [Compound 141, Diundecyl 6,6′-((2-hydroxyethyl)azanediyl)dihexanoate] |  | 1.21E+06 | 3.49E+05 | 2.86E+04 | 1.59E+05 | 3.85E+04 | 6.29E+04 | 327.15 | 1072.04 | 1.81 | 94.1% | 7.47 | 0.99 | 91.3 nm | flux at all timepoints measured ([1]; mice): significantly lower flux; Flux in the liver ([2]; i.v., in words): lowest; Flux in the spleen ([2]; i.v., in words): lowest
7 | CN(Cc1cnc2nc(N)nc(N)c2n1)c1ccc(C(=O)N[C@@H](CCC(=O)O)C(=O)O)cc1 [Methotrexate, methotrexate] |  |  |  |  |  |  |  |  |  |  |  |  |  |  | effect of pretreatment on hEPO protein expression [13]: did not confer any particular beneficial effect
